Measured values published in patent US4916122A, “3'-Azido-2',3'-dideoxyuridine anti-retroviral composition” (University of Georgia Research Foundation, Inc., priority 1987, dated 1990).
Values after ≈ are worked out from the molar mass of the structure shown. Values joined by “and” are separate entries in the source; they are usually repeats but may differ in a detail not shown here. Equal entries are not always repeated. Where two headings read alike, the source gives them in different places.

Legend:
[1] = test system: HIV (LAV-1); experiment: Median effective antiviral concentration against HIV (Table 5); format: cell-based; conditions: HIV (LAV-1) vs Friend (EY-10) or Cas-Br-M
[2] = test system: SIV (SMM); experiment: Median effective antiviral concentration against SIV (Table 5); format: cell-based, simian immunodeficiency virus
Excerpt: (§1) A comparison of the differences in median effective an tiviral concentrations between human, non-human primate, and murine retroviruses is shown in Table 5. […] A further comparison of the activity of several nucleoside analogues, including CS-87, against HIV-1 and SIV in human PBM cells is shown in FIG. 6. The effect of delayed treatment with AZT, CS-87 or CS-91 on the replication of HIV-1 and SIV in human PBM cells is shown in FIGS. 7a, b, and c.

[3] = test system: Friend (EY-10); experiment: Median effective antiviral concentration against Friend virus (Table 5); format: cell-based, murine retrovirus; conditions: unidentified retrovirus, in Mus musculus
Excerpt: as §1

[4] = test system: Mouse ecotropic (Cas-Br-M); experiment: Median effective antiviral concentration against mouse ecotropic virus (Table 5); format: cell-based, murine retrovirus; conditions: unidentified retrovirus
Excerpt: as §1

[5] = in vivo; format: in vivo, rhesus monkey; conditions: rhesus monkeys, oral dose of 920 mg
Experimental: In rhesus monkeys, the pharmocokinetic parameters after an oral dose of […] of CS-87 are as follows: […]

[6] = in vitro; format: cell-based
Excerpt: The effect of CS-87 on colony formation of human granulocytes-macrophage precursor cells was compared with the effects of AZT and CS-85 in FIG. 1. Vero cells are very fast growing cells, and it can be seen from FIG. 2a that up to a concentration of about 400 micromolar, there is relatively little toxicity to these cells. PBM cells are somewhat more sensitive to CS-87 than the Vero cells, but these cells will still tolerate a concentration of CS-87 of up to about 200 micromolar before significant inhibition is noted (see FIG. 2b).

[7] = test system: liver enzymes SGPT and SGOT; format: in vivo, rhesus monkey; conditions: rhesus monkeys, FIG. 4
[8] = test system: HIV-1 and SIV; experiment: Effect of delayed treatment on replication of HIV-1 and SIV in human PBM cells (FIG. 7); format: cell-based, HIV-1; SIV
Excerpt: as §1

[9] = test system: HIV-1
[10] = test system: NIH Swiss mice; conditions: 67 days; for Hct / Hgb / MCH / MCHC / MCV / PLT / RBC / RDW / WBC: oral 0.5 mg/ml ad libitum
[11] = test system: HIV; conditions: in vitro
[12] = test system: uninfected cells; conditions: tested up to 200 μM
[13] = test system: L1210 cells; conditions: in vitro; Lin et al.; Lin and Mancini; cited from earlier work
[14] = test system: sarcoma 180 cells; conditions: in vitro; Lin et al.; cited from earlier work
[15] = test system: Coxsackie virus B4; conditions: Colla et al.; cited from earlier work
[16] = test system: polio virus-1; conditions: cited from earlier work
[17] = test system: reovirus-1; conditions: Colla et al.; cited from earlier work
[18] = test system: parainfluenza virus-3; conditions: Colla et al.; cited from earlier work
[19] = test system: Sindbis virus; conditions: Colla et al.; cited from earlier work
[20] = test system: measles; conditions: Colla et al.; cited from earlier work
[21] = test system: HIV-1; experiment: microbe, parasite or virus in culture; conditions: Human immunodeficiency virus 1, PBMC, read-out: PBM (EC50)
[22] = test system: HIV-1 (Strain HTLV-III); experiment: Antiviral activity against HIV-1 in ATH-8 cells (Table 4)
[23] = test system: HIV-1 p24; experiment: Inhibition of HIV replication in human PBM cells, p24 RIA (Table 3)
[24] = test system: HIV p24 and p41; experiment: Inhibition of HIV replication in human PBM cells, western blot analysis (Table 3)
[25] = test system: HIV-1 (strain LAV); experiment: Inhibition of HIV replication in human PBM cells, reverse transcriptase assay (Table 3)
[26] = Human immunodeficiency virus 1, PBMC, in Homo sapiens, read-out: RIA p24 % Inhibition
[27] = Human immunodeficiency virus 1, PBMC, in Homo sapiens, read-out: RT % Inhibition (corrected)

Compound: [N-]=[N+]=N[C@H]1C[C@H](n2ccc(=O)[nH]c2=O)O[C@@H]1CO [CS-87, 3'-azido-2',3'-dideoxyuridine]
- effectiveness against HIV (LAV-1) compared with Friend or mouse ecotropic virus [1]: much more effective
- effectiveness against SIV (SMM) compared with Friend or mouse ecotropic virus ([2]; SIV (SMM) vs Friend (EY-10) or Cas-Br-M): much more effective
- EC50 ([2]; Simian immunodeficiency virus): 200 nM
- EC50 [3]: > 10000 nM
- EC50 [4]: 9100 nM
- AUC ([5]; rhesus monkey, in vivo): 113 µg·h/mL
- CL/F ([5]; rhesus monkey, in vivo, read-out: clearance (converted)): 29 mL/min/kg
- k el ([5]; rhesus monkey, in vivo, read-out: elimination rate constant, k (converted)): 0.000397 s⁻¹
- half-life ([5]; rhesus monkey, in vivo, read-out: elimination t1/2 k (converted)): 28.8 min
- Vd/F ([5]; rhesus monkey, in vivo, read-out: volume of distribution (Vss)): 1.2 L/kg
- absorption rate constant (ka) [5]: 1.73 h⁻¹
- absorption rate t1/2 [5]: 24 min
- MNTC ([6]; human, PBM cells, FIG. 2b, read-out: concentration tolerated by PBM cells before significant inhibition is noted): ~200 µM
- MNTC ([6]; monkey, Vero cells, FIG. 2a, read-out: concentration up to which there is relatively little toxicity to Vero cells): ~400 µM
- toxicity by oral (po) vs intravenous administration [7]: less toxic than intravenous administration
- effect of delayed treatment on replication of HIV-1 and SIV [8]: time of administration is critical to the effectiveness of the treatment
- activity compared to d2C in PBM cells [9]: less active
- Hct ([10]; Mean of group): 42.4%
- Hgb ([10]; Mean of group): 14.0 g/dL
- MCH ([10]; Mean of group): 16.7 pg
- MCHC ([10]; Mean of group): 33.1 g/dL
- MCV ([10]; Mean of group): 50.4 fL
- PLT ([10]; Mean of group): 1.3 × 10^6
- RBC ([10]; Mean of group): 8.4 × 10^6
- RDW ([10]; Mean of group): 26.0%
- WBC ([10]; Mean of group): 8.0 × 10^3
- toxicity compared to AZT (RBC and MCV values) ([10]; NIH Swiss mice, oral 0.5 mg/ml): significantly less toxicity
- Hct ([10]; individual mouse): 37.2% and 44.4% and 42.3% and 45.7%
- Hgb ([10]; individual mouse): 12.9 g/dL and 14.1 g/dL and 14.2 g/dL and 14.8 g/dL
- MCH ([10]; individual mouse): 16.9 pg and 16.4 pg and 16.6 pg and 16.8 pg
- MCHC ([10]; individual mouse): 34.6 g/dL and 31.8 g/dL and 33.5 g/dL and 32.4 g/dL
- MCV ([10]; individual mouse): 48.8 fL and 51.7 fL and 49.4 fL and 51.8 fL
- PLT ([10]; individual mouse): 1.158 × 10^6 and 1.35 × 10^6 and 1.305 × 10^6 and 1.361 × 10^6
- RBC ([10]; individual mouse): 7.6 × 10^6 and 8.6 × 10^6 and 8.8 × 10^6
- RDW ([10]; individual mouse): 34.3% and 16.8% and 37.7% and 15.3%
- WBC ([10]; individual mouse): 2.6 × 10^3 and 8.9 × 10^3 and 7.9 × 10^3 and 12.6 × 10^3
- activity against HIV, in words [11]: selective anti-HIV-1 activity
- toxicity to the uninfected cells [12]: not toxic
- activity against L1210 cells [13]: inactive
- activity against sarcoma 180 cells [14]: inactive
- activity against Coxsackie virus B4 [15]: inactive
- activity against polio virus-1 [16]: inactive
- activity against reovirus-1 [17]: inactive
- activity against parainfluenza virus-3 [18]: inactive
- activity against Sindbis virus [19]: inactive
- activity against measles [20]: inactive
- EC50 [21]: 180 nM
- activity compared to d2C in ATH-8 cells ([22]; ATH-8 cells): comparable activity to d2C
- MIC ([22]; Human immunodeficiency virus 1, 240 h, read-out: ATH-8 (MIC)): 0.4 µM (≈ 0.101 µg/mL)
- RIA p24 (Dupont kit) ([23]; 0.1 μM): 21.86 ng/mL
- RIA p24 (Dupont kit) ([23]; 1 μM): 11.76 ng/mL
- RIA p24 (Dupont kit) ([23]; 10 μM): 0.65 ng/mL
- inhibition at 0.1 µM [23, 26]: 9.2%
- inhibition at 1 µM [23, 26]: 51.2%
- inhibition at 10 µM [23, 26]: 97.3%
- Western blot p24 (band intensity) ([24]; 0.1 μM): 3+
- Western blot p41 (band intensity) ([24]; 0.1 μM): 2+
- Western blot p24 (band intensity) ([24]; 1 μM): 2+
- Western blot p41 (band intensity) ([24]; 1 μM): 1+
- Western blot p24 (band intensity) ([24]; 10 μM): 0
- Western blot p41 (band intensity) ([24]; 10 μM): 0
- RT: Mean DPM/ml on day 5 (3 day old cells) ([25]; 0.1 μM): 367,934 DPM/ml
- RT: Mean DPM/ml on day 5 (3 day old cells) ([25]; 1 μM): 188,878 DPM/ml
- RT: Mean DPM/ml on day 5 (3 day old cells) ([25]; 10 μM): 12,904 DPM/ml
- inhibition at 0.1 µM [25, 27]: 42.3%
- inhibition at 1 µM [25, 27]: 70.4%
- inhibition at 10 µM [25, 27]: 98%
